Measured values published in patent US8193191B2, “Urotensin II receptor antagonists” (Janssen Pharmaceutica N.V., priority 2006, dated 2012).

Assays:
[1] = molecular target: T1, endogenous human UII receptor (Homo sapiens, UniProt Q9UKP6); experiment: Human Radioligand Binding Assay ((^125I)-U-II binding to human skeletal muscle myoblasts)
T1 sequence (Q9UKP6 1-389): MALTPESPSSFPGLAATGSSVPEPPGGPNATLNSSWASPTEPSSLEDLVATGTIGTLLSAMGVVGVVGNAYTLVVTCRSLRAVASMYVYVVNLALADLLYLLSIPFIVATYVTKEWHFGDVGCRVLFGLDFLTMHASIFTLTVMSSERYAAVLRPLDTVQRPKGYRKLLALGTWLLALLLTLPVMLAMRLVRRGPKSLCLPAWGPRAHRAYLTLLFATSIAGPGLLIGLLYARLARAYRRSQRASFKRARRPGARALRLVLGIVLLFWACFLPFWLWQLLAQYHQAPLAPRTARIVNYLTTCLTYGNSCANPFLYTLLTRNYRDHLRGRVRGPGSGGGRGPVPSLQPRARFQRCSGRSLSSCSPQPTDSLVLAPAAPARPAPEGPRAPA

[2] = molecular target: T2, rat GPR14 (U-II receptor) (Rattus norvegicus, UniProt P49684); experiment: Rat UII Calcium Mobilization FLIPR Assay; type: cell-based; conditions: average value for the compound tested; read-out: Rat UII FLIPR Average IC50
T2 construct: expressed in transfected cells
T2 sequence (P49684 1-386): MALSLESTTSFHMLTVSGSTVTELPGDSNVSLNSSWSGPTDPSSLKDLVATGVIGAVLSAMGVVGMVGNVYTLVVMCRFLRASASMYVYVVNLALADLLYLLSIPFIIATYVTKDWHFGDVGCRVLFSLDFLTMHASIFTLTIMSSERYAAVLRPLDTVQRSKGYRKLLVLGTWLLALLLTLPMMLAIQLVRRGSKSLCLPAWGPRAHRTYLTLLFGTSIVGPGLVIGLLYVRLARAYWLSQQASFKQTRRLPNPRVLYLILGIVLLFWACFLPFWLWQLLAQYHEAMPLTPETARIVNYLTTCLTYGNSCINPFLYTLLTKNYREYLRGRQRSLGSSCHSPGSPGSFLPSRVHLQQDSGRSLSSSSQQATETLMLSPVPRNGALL
Outline: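 Fluorescent calcium signals were recorded at room temperature (23° C) by FLIPR. Stable rat U-II receptor CHO lines had been dye-loaded for 1 h at 37° C in pH 7.4 HBSS containing 20 mM HEPES, 0.1% BSA and 2.5 mM probenecid.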

[3] = molecular target: T3, Human UII receptor, 6D9 human rhabdomyosarcoma cells (Homo sapiens, UniProt Q9UKP6); experiment: Human UII Calcium Mobilization Assay; type: cell-based; conditions: average value, FLIPR TETRA, read-out: Human UII Ca^+ Mobilization Average IC50
T3 construct: 6D9: isolated by dilution subcloning of RMS13 cells, ATCC® Number: CRL-2061; host or cells: 6D9 human rhabdomyosarcoma cells (subclone of RMS13)
T3 sequence (Q9UKP6 1-389): T1 sequence (Q9UKP6 1-389)
Outline: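 FLIPR calcium responses were recorded for 4 minutes after room-temperature addition of test antagonist and U-II, in dye-loaded human 6D9 cells (37° C, 45 min; HBSS/HEPES with probenecid 1.25 mM). Compounds serially diluted in HBSS/HEPES, up to 0.1% DMSO; curves gave IC50 and EC50.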

[4] = system: isolated arterial rings of rats; conditions: read-out: EC50 of contraction; cited from earlier work
[5] = system: isolated arterial rings of humans; conditions: read-out: EC50 of contraction; cited from earlier work
[6] = molecular target: T4, rU-II receptor (Rattus norvegicus, UniProt P49684); conditions: agonist peptide; cited from earlier work
T4 sequence (P49684 1-386): T2 sequence (P49684 1-386)

[7] = molecular target: T2, rat GPR14 (U-II receptor); conditions: agonist peptide, CHO cells transfected with rat GPR14; read-out: FLIPR EC50; cited from earlier work

Row | Molecule | Ki [1] [nM] | IC50 [2] [nM] | IC50 [3] [nM] | EC50 [4] [nM] | EC50 [5] [nM] | Ki [6] [nM] | EC50 [7] [nM]
1 | COc1ccc([C@@H](CCNC(=O)c2ccncc2)N2C(=O)c3cccc(N4CCN([C@H](C)c5ccccc5)CC4)c3C2=O)cc1OC [Cpd 221, (R)-N-(3-(3,4-dimethoxy-phenyl)-3-{1,3-dioxo-4-[4-(1R)-(1-phenyl-ethyl)-piperazin-1-yl]-1,3-dihydro-isoindol-2-yl}-propyl)-isonicotinamide] | 72 | 15 | 910 | – | – | – | –
2 | COc1ccc([C@@H](CCNS(=O)(=O)Cc2ccccc2)N2C(=O)c3cccc(N4CCN([C@H](C)c5ccccc5)CC4)c3C2=O)cc1OC [Cpd 222, (R)-N-(3-(3,4-dimethoxy-phenyl)-3-{1,3-dioxo-4-[4-(1R)-(1-phenyl-ethyl)-piperazin-1-yl]-1,3-dihydro-isoindol-2-yl}-propyl)-C-phenyl-methanesulfonamide] | 140 | 25 | 1500 | – | – | – | –
3 | COc1ccc([C@@H](CCNS(=O)(=O)c2c(C)n[nH]c2C)N2C(=O)c3cccc(N4CCN([C@H](C)c5ccccc5)CC4)c3C2=O)cc1OC [Cpd 223, (R)-3,5-dimethyl-1H-pyrazole-4-sulfonic acid (3-(3,4-dimethoxy-phenyl)-3-{1,3-dioxo-4-[4-(1R)-(1-phenyl-ethyl)-piperazin-1-yl]-1,3-dihydro-isoindol-2-yl}-propyl)-amide] | 120 | 12 | 240 | – | – | – | –
4 | COc1ccc([C@@H](CCCNS(=O)(=O)c2cccs2)N2C(=O)c3cccc(OCCCN(C)C)c3C2=O)cc1OC [Cpd 224, (R)-thiophene-2-sulfonic acid {4-(3,4-dimethoxy-phenyl)-4-[4-(3-dimethylamino-propoxy)-1,3-dioxo-1,3-dihydro-isoindol-2-yl]-butyl}-amide] | > 300 | 340 | 2000 | – | – | – | –
5 | COc1cc(Br)c(CN2C(=O)c3cccc(N4CCN([C@H](C)c5ccccc5)CC4)c3C2=O)cc1OC [Cpd 225, 2-(2-bromo-4,5-dimethoxy-benzyl)-4-[4-(1R)-(1-phenyl-ethyl)-piperazin-1-yl]-isoindole-1,3-dione] | > 300 | 1500 | > 10000 | – | – | – | –
6 | COc1ccc(CN2C(=O)c3ccc(N4CCN([C@H](C)c5ccccc5)CC4)cc3C2=O)cc1OC [Cpd 226, 2-(3,4-dimethoxy-benzyl)-5-[4-(1R)-(1-phenyl-ethyl)-piperazin-1-yl]-isoindole-1,3-dione] | > 300 | 10000 | > 10000 | – | – | – | –
7 | CCN1CCN(c2cccc3c2C(=O)N([C@H](CCCOCc2c(F)cccc2F)c2ccc(OC)c(OC)c2)C3=O)CC1 [Cpd 227, (R)-2-[4-(2,6-difluoro-benzyloxy)-1-(3,4-dimethoxy-phenyl)-butyl]-4-(4-ethyl-piperazin-1-yl)-isoindole-1,3-dione] | > 300 | 160 | 2900 | – | – | – | –
8 | COc1ccc([C@@H](CCCN(C)S(=O)(=O)O)N2C(=O)c3cccc(N4CCN([C@H](C)c5ccccc5)CC4)c3C2=O)cc1OC [Cpd 228, (R)-(4-(3,4-dimethoxy-phenyl)-4-{1,3-dioxo-4-[4-(1R)-(1-phenyl-ethyl)-piperazin-1-yl]-1,3-dihydro-isoindol-2-yl}-butyl)-methyl-sulfamic acid] | 25 | 49 | 780 | – | – | – | –
9 | COc1ccc([C@@H](CCCNS(=O)(=O)c2cccs2)N2C(=O)c3cccc(OCCN(C)C)c3C2=O)cc1OC [Cpd 229, (R)-thiophene-2-sulfonic acid {4-(3,4-dimethoxy-phenyl)-4-[4-(2-dimethylamino-ethoxy)-1,3-dioxo-1,3-dihydro-isoindol-2-yl]-butyl}-amide] | 320 | > 100 | 1700 | – | – | – | –
10 | CCN1CCN(c2cccc3c2C(=O)N(C(c2cccc(NCc4ccccc4)c2)c2ccc(OC)c(OC)c2)C3=O)CC1 (stereo not shown) [Cpd 230, 2-[(3-benzylamino-phenyl)-(3,4-dimethoxy-phenyl)-methyl]-4-(4-ethyl-piperazin-1-yl)-isoindole-1,3-dione] | > 300 | 290 | 1900 | – | – | – | –
11 | CCN1CCN(c2cccc3c2C(=O)N(C(c2cccc(NS(=O)(=O)O)c2)c2ccc(OC)c(OC)c2)C3=O)CC1 (stereo not shown) [Cpd 231, (3-{(3,4-dimethoxy-phenyl)-[4-(4-ethyl-piperazin-1-yl)-1,3-dioxo-1,3-dihydro-isoindol-2-yl]-methyl}-phenyl)-sulfamic acid] | 511 | 680 | 3400 | – | – | – | –
12 | CCN1CCN(c2cccc3c2C(=O)N(C(CC2CCN(Cc4ccccc4)CC2)c2ccc(OC)c(OC)c2)C3=O)CC1 (stereo not shown) [Cpd 232, 2-[2-(1-benzyl-piperidin-4-yl)-1-(3,4-dimethoxy-phenyl)-ethyl]-4-(4-ethyl-piperazin-1-yl)-isoindole-1,3-dione] | > 300 | 410 | 4100 | – | – | – | –
13 | CCN1CCN(c2cccc3c2C(=O)N(C(CC2CCN(S(=O)(=O)O)CC2)c2ccc(OC)c(OC)c2)C3=O)CC1 (stereo not shown) [Cpd 233, 4-{2-(3,4-dimethoxy-phenyl)-2-[4-(4-ethyl-piperazin-1-yl)-1,3-dioxo-1,3-dihydro-isoindol-2-yl]-ethyl}-piperidine-1-sulfonic acid] | 57 | 660 | 770 | – | – | – | –
14 | CCN1CCN(c2cccc3c2C(=O)N(C(CC2CCN(S(=O)(=O)c4cccs4)CC2)c2ccc(OC)c(OC)c2)C3=O)CC1 (stereo not shown) [Cpd 234, 2-{1-(3,4-dimethoxy-phenyl)-2-[1-(thiophene-2-sulfonyl)-piperidin-4-yl]-ethyl}-4-(4-ethyl-piperazin-1-yl)-isoindole-1,3-dione] | 280 | 51 | 1700 | – | – | – | –
15 | AGTAD-cyclo(CFWKYC)—V [Goby U-II, Urotensin-II isolated from the urophysis of the goby fish (Gillichthys mirabilis) as a 12-mer] | – | – | – | < 1 | < 1 | – | –
16 | Acetyl-cyclic[Cys-Phe-Trp-Lys-(2-Nal)-Cys]-NH2 [(Ac)—CFWK(2-NaI)C—NH2, agonist cyclic peptide used at 1 nM to induce Ca2+ mobilization in the rat UII FLIPR assay] | – | – | – | – | – | 0.12 ± 0.05 | 0.54 ± 0.2
